Laboratory results published in patent publication US9125898B2, “Acetam derivatives for pain relief” (NEUROTUNE AG, priority 2008, dated 2015).

Tested on: oxaliplatin induced hyperalgesia in the rat
Assay: Oxaliplatin induced hyperalgesia in the rat paw-pressure test
Format: in vivo
Details: for Paw pressure, pre-test before all treatments: baseline, drug 100 mg/kg p.o.; for Paw pressure, 1a week - 30 min / Paw pressure, 2a week - 30 min / Paw pressure, 3a week - 30 min / Paw pressure, 3a week - 4 h / Paw pressure, 3a week - 8 h / Paw pressure, 3a week - 24 h: drug 100 mg/kg p.o. once daily
Method: Drugs: The following substance was used: NT-13317 (batch No. RR0011-184A1 supplied by Brane Discovery Srl, Gerenzano Italy). NT-13317 was dissolved in DMSO 20%, 10% glucose and administered at the dose of 10, 30 and 100 mg/kg p.o.
Gabapentin (Sigma) was dissolved in 1% CMC (carboxymethylcellulose-Sigma) and orally administered at 100 mg/kg, and dissolved in saline and i.v. administered at 3 mg/kg.
Oxaliplatin model: A peripheral neuropathy was induced in adult rats, by administration of oxaliplatin (Tocris), at 2.4 mg/kg i.p. in saline once a day on days 1, 2, 3, 4, 5, 8, 9, 10, 11, 12, 15, 16, 17, 18, 19 (cumulative dose 36 mg/kg) according to [1].
In the first experiment NT-13317 and gabapentin were given chronically at the dose 100 mg/kg po starting 3 days before oxaliplatin and every day for 5 days/week for 3 weeks.
A dose-response experiment was then performed with NT-13317 (10, 30 and 100 mg/kg po) using the same treatment schedule.
Paw pressure test: Paw mechanical sensitivity was determined using a Randall & Selitto apparatus exerting a force that increases at constant rate (32 g/s). The stimulus at which rats withdrawn the paw was evaluated before and at different times after treatment. Results represent the mean of mechanical thresholds expressed as grams. To avoid any possible damage to the animal paw the maximum applied force was fixed at 240 g.
Statistical analysis: All experimental results are given as the mean±S.E.M. An analysis of variance, ANOVA, followed by Fisher's protected least significant difference procedure for post hoc comparison, were used to verify significance between two means of behavioral results. Data were analyzed with the StatView software for the Macintosh (1992). P values≦0.05 were considered significant.

Q: For `NCC1(CC(=O)O)CCCCC1` [GABAPENTIN, Gabapentin, reference compound], which “Reduction of mechanical hyperalgesia over three weeks of treatment (in words)” value (100 mg/kg p.o. once daily, 5 days/week for 3 weeks) is on record?
A: much lower effect only at the end of the third week

Q: What about the “Pharmacodynamic profile at the end of the third week” value (gabapentin 100 mg/kg p.o.) of the same molecule?
A: sporadic, intermediate efficacy at 30 min

Q: What about the “Paw pressure, pre-test before all treatments” value (oxaliplatin i.p. group) of the same molecule?
A: 61.1 ± 4.0 g

Q: What about the “Paw pressure, 1a week - 30 min” value (oxaliplatin i.p.) of the same molecule?
A: 47.8 ± 5.6 g

Q: What about the “Paw pressure, 2a week - 30 min” value (oxaliplatin i.p.) of the same molecule?
A: 49.0 ± 5.5 g

Q: And the “Paw pressure, 3a week - 30 min” value (oxaliplatin i.p.)?
A: 59.5 ± 5.5 g

Q: And the “Paw pressure, 3a week - 4 h” value (oxaliplatin i.p.)?
A: 55.6 ± 4.2 g

Q: And the “Paw pressure, 3a week - 8 h” value (oxaliplatin i.p.)?
A: 43.8 ± 6.1 g

Q: What about the “Paw pressure, 3a week - 24 h” value (oxaliplatin i.p.) of the same molecule?
A: 42.2 ± 5.5 g

Q: And the “Paw pressure, pre-test before all treatments” value (vehicle i.p. (no oxaliplatin) group)?
A: 62.7 ± 3.9 g

Q: And the “Paw pressure, 1a week - 30 min” value (vehicle i.p. (no oxaliplatin))?
A: 65.6 ± 4.9 g

Q: And the “Paw pressure, 2a week - 30 min” value (vehicle i.p. (no oxaliplatin))?
A: 73.7 ± 5.2 g

Q: And the “Paw pressure, 3a week - 30 min” value (vehicle i.p. (no oxaliplatin))?
A: 82.3 ± 5.2 g

Q: What about the “Paw pressure, 3a week - 4 h” value (vehicle i.p. (no oxaliplatin)) of the same molecule?
A: 76.2 ± 4.8 g

Q: What about the “Paw pressure, 3a week - 8 h” value (vehicle i.p. (no oxaliplatin)) of the same molecule?
A: 78.2 ± 5.6 g

Q: And the “Paw pressure, 3a week - 24 h” value (vehicle i.p. (no oxaliplatin))?
A: 68.7 ± 5.9 g
